Results on one compound are retold here after PMC8744338, “Luteolin increases susceptibility to macrolides by inhibiting MsrA efflux pump in Trueperella pyogenes” (Veterinary Research, 2022).

This test has as its target T1, MsrA efflux pump (His-MsrA) (Staphylococcus epidermidis, UniProt P23212).
T1 construct: macrolide ABC-F MsrA of staphylococcal type, not methionine sulfoxide reductase
In words: surface plasmon resonance (Biacore T200, His-MsrA captured on NTA chip). The class given is binding. To be noted: PBS-P running buffer; luteolin 12.5-400 μM.

T1 sequence (P23212 whole entry): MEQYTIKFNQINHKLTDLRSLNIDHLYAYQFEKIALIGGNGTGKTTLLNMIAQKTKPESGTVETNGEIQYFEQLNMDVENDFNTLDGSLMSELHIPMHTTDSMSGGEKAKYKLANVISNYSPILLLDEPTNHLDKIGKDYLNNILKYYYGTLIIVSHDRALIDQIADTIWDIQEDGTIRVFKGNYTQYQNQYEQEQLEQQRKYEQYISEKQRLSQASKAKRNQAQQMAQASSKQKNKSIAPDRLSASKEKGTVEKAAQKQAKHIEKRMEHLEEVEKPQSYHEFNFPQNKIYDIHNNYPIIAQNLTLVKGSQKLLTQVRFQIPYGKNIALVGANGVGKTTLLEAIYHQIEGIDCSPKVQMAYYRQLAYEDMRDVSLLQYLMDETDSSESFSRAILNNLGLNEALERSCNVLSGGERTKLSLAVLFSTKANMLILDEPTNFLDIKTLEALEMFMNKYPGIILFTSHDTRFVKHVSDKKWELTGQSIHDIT

`O=c1cc(-c2ccc(O)c(O)c2)oc2cc(O)cc(O)c12` [luteolin] gave an equilibrium dissociation constant (Kd) of 64.6 µM.
